Some test systems named below: Klebsiella pneumoniae; Salmonella typhimurium; Pseudomonas aeruginosa; Staphylococcus aureus; Bacillus subtilis 168; Escherichia coli B.
Holding throughout (experiment): ≥ marks a high value that may be exact or a test limit, other limits are often not marked, values filed in µg/mL are converted to µM
For experiment [1], the system named is Klebsiella pneumoniae ATCC 43816.
Experiment [2] has as its system Candida albicans NCYC 1467.
The test system of experiment [3] is Staphylococcus aureus NCTC 12493.
Experiment [4] has as its system Escherichia coli NCTC 10418.
For experiment [5], the system named is Pseudomonas aeruginosa ATCC 27853.
The test system of experiment [6] is Staphylococcus aureus NCTC 10788.
The test system of experiment [7] is Enterococcus faecalis NCTC 12697.
Experiment [8] concerns Escherichia coli DH5alpha.
The subject of experiment [9] is Pseudomonas aeruginosa ATCC 9027.
Experiment [10] concerns Staphylococcus aureus USA 300.
Experiment [11] relates to Candida albicans ATCC 90028.
Experiment [12] has as its system Staphylococcus aureus USA 100.
In experiment [13] the test system is Candida albicans F7-39/IDE99.

Consider 12 compounds from DBAASP.

In brackets after ≈: the same amount, converted by molar mass. A value given as a limit tells only on which side of the number the result lay.

Take `CC[C@H](C)[C@H](NC(=O)[C@H](CCCCN)NC(=O)[C@H](CO)NC(=O)[C@H](Cc1c[nH]c2ccccc12)NC(=O)[C@H](CC(C)C)NC(=O)CN)C(=O)N[C@@H](CCCCN)C(=O)N[C@@H](CCCCN)C(=O)N[C@@H](C)C(=O)N[C@@H](C)C(=O)N[C@@H](CCCCN)C(=O)N[C@H](C(=O)N[C@@H](C)C(=O)NCC(=O)N[C@@H](CCCCN)C(=O)N[C@@H](C)C(=O)N[C@@H](C)C(=O)N[C@@H](CC(C)C)C(=O)NCC(=O)N[C@@H](Cc1ccccc1)C(=O)N[C@H](C(=O)N[C@@H](CC(N)=O)C(=O)N[C@@H](CCCCN)C(=O)N[C@@H](CCSC)C(=O)N[C@H](C(N)=O)C(C)C)C(C)C)[C@@H](C)O` [GLWSKIKKAAKTAGKAALGFVNKMV]: the minimum inhibitory concentration (MIC) stood at 2 µM (≈ 5.23 µg/mL) in experiment [1]; 4 µM (≈ 10.5 µg/mL) in [2]; 2 µM (≈ 5.23 µg/mL) in experiment [3]; 2 µM (≈ 5.23 µg/mL) in experiment [4]; 4 µM (≈ 10.5 µg/mL) in experiment [5]; 2 µM (≈ 5.23 µg/mL) in [6]. The same compound had an MIC in experiment [7] of 2 µM (≈ 5.23 µg/mL).
In the case of `CC[C@H](C)[C@H](N)C(=O)N[C@@H](CC(C)C)C(=O)N1CCC[C@H]1C(=O)N[C@@H](Cc1c[nH]c2ccccc12)C(=O)N[C@@H](CCCCN)C(=O)N[C@@H](Cc1c[nH]c2ccccc12)C(=O)N[C@@H](C)C(=O)N[C@@H](Cc1c[nH]c2ccccc12)C(=O)N[C@@H](Cc1c[nH]c2ccccc12)C(=O)N[C@@H](C)C(=O)N[C@@H](Cc1c[nH]c2ccccc12)C(=O)N[C@@H](CCCN=C(N)N)C(=O)N[C@@H](CCCN=C(N)N)C(N)=O` [ILPWKWAWWAWRR], the MIC in the experiment on Klebsiella pneumoniae stood at 25 µM (≈ 46.4 µg/mL); with Salmonella typhimurium, 25 µM (≈ 46.4 µg/mL); in the experiment on Pseudomonas aeruginosa, 100 µM (≈ 185 µg/mL); in experiment [8] it was 15 µM (≈ 27.8 µg/mL).
As to `CC[C@H](C)[C@H](NC(=O)[C@H](C)NC(=O)[C@H](C)NC(=O)[C@@H]1CCCN1C(=O)[C@@H](NC(=O)[C@H](CC(C)C)NC(=O)[C@H](CCCCN)NC(=O)CNC(=O)[C@H](C)NC(=O)[C@@H](NC(=O)[C@H](CCCCN)NC(=O)[C@H](CC(C)C)NC(=O)[C@@H](NC(=O)[C@H](C)NC(=O)CNC(=O)[C@H](CC(C)C)NC(=O)[C@@H](N)Cc1ccccc1)C(C)C)C(C)C)C(C)C)C(=O)N[C@H]1CSSC[C@@H](C(=O)O)NC(=O)[C@H](CCCCN)NC(=O)[C@H](CCCCN)NC(=O)[C@H](CO)NC(=O)[C@H]([C@@H](C)CC)NC(=O)[C@H](CCCCN)NC1=O` [FLGAVLKVAGKLVPAAICKISKKC], the MIC in [1] was determined as 8 µM (≈ 19.6 µg/mL); in [2], 2 µM (≈ 4.91 µg/mL); in [3], 4 µM (≈ 9.82 µg/mL); in experiment [4], 4 µM (≈ 9.82 µg/mL); in experiment [5], 32 µM (≈ 78.6 µg/mL); in experiment [6] it was 2 µM (≈ 4.91 µg/mL). For the same compound, the MIC in experiment [7] is 8 µM (≈ 19.6 µg/mL).
`NC(=O)[C@H](Cc1c[nH]c2ccccc12)NC(=O)[C@H](Cc1c[nH]c2ccccc12)NC(=O)[C@H](Cc1c[nH]c2ccccc12)NC(=O)[C@H](CCCN=C(N)N)NC(=O)[C@H](CCCN=C(N)N)NC(=O)[C@@H](N)CCCN=C(N)N` [RRRWWW]: the MIC in [9] was 50 µM (≈ 52.2 µg/mL); in experiment [10], 25 µM (≈ 26.1 µg/mL); in [11], no less than 100 µM; in experiment [12] it was 25 µM (≈ 26.1 µg/mL).
On to `CSCC[C@H](NC(=O)[C@H](CC(=O)O)NC(=O)[C@@H](NC(=O)[C@@H](NC(=O)[C@H](CCCCN)NC(=O)[C@H](CC(N)=O)NC(=O)[C@H](CC(C)C)NC(=O)[C@@H](NC(=O)[C@H](C)NC(=O)[C@H](CCCCN)NC(=O)CNC(=O)[C@H](C)NC(=O)[C@H](C)NC(=O)[C@H](CCCCN)NC(=O)CNC(=O)[C@@H](NC(=O)[C@H](CC(N)=O)NC(=O)[C@H](CCCCN)NC(=O)[C@H](CC(C)C)NC(=O)[C@H](CC(C)C)NC(=O)[C@H](CC(=O)O)NC(=O)[C@H](CCCCN)NC(=O)[C@H](Cc1c[nH]c2ccccc12)NC(=O)[C@H](CC(C)C)NC(=O)[C@H](C)N)C(C)C)C(C)C)C(C)C)[C@@H](C)O)C(=O)N[C@H](C(=O)N[C@@H](CC(N)=O)C(=O)N[C@@H](CCC(N)=O)C(N)=O)C(C)C` [ALWKDLLKNVGKAAGKAVLNKVTDMVNQ], for which the MIC amounted to 8 µM (≈ 24.2 µg/mL) in [1]; 4 µM (≈ 12.1 µg/mL) in experiment [2]; 8 µM (≈ 24.2 µg/mL) in [3]; 4 µM (≈ 12.1 µg/mL) in [4]; 8 µM (≈ 24.2 µg/mL) in [5]; 4 µM (≈ 12.1 µg/mL) in [6]. In [7], this compound yielded an MIC of no less than 128 µM.
On to `NCCCC[C@H](NC(=O)[C@H](Cc1c[nH]c2ccccc12)NC(=O)[C@H](CCCCN)NC(=O)[C@H](Cc1c[nH]c2ccccc12)NC(=O)[C@H](Cc1c[nH]c2ccccc12)NC(=O)[C@H](CCCCN)NC(=O)[C@H](Cc1c[nH]c2ccccc12)NC(=O)[C@@H](N)CCCCN)C(N)=O` [KWKWWKWK], for which the MIC in experiment [9] was 50 µM (≈ 63.7 µg/mL); in experiment [10] it was 6.25 µM (≈ 7.97 µg/mL); in [11], no less than 100 µM; in experiment [12], 12.5 µM (≈ 15.9 µg/mL).
Consider `CSCC[C@H](NC(=O)CN)C(=O)N[C@@H](Cc1c[nH]c2ccccc12)C(=O)N[C@@H](CO)C(=O)N[C@@H](CCCCN)C(=O)N[C@@H](CC(C)C)C(=O)N[C@@H](CC(C)C)C(=O)NCC(=O)N[C@@H](Cc1cnc[nH]1)C(=O)N[C@@H](CC(C)C)C(=O)N[C@@H](CC(C)C)C(=O)N[C@@H](CCCN=C(N)N)C(N)=O` [GMWSKLLGHLLR], for which the MIC stood at 7.7 µM (≈ 10.9 µg/mL) against Staphylococcus aureus; 5 µM (≈ 7.05 µg/mL) in experiment [13]; 1.3 µM (≈ 1.83 µg/mL) against Bacillus subtilis 168; 3 µM (≈ 4.23 µg/mL) against Escherichia coli B; 20.2 µM (≈ 28.5 µg/mL) in the experiment on Pseudomonas aeruginosa.
`CC(C)C[C@H](NC(=O)[C@H](CCC(N)=O)NC(=O)[C@H](CCC(N)=O)NC(=O)[C@H](C)NC(=O)CNC(=O)[C@H](C)NC(=O)[C@H](CCCCN)NC(=O)CNC(=O)[C@@H](NC(=O)[C@H](CCC(N)=O)NC(=O)[C@H](CCCCN)NC(=O)[C@@H]1CCCN1C(=O)[C@H](CC(C)C)NC(=O)[C@H](Cc1ccc(O)cc1)NC(=O)[C@H](CCCCN)NC(=O)[C@H](C)NC(=O)CNC(=O)[C@H](C)NC(=O)[C@H](CCCCN)NC(=O)[C@H](Cc1ccccc1)NC(=O)[C@H](CC(C)C)NC(=O)[C@H](CO)NC(=O)[C@H](CO)NC(=O)[C@H](Cc1ccccc1)NC(=O)CN)C(C)C)C(N)=O` [GFSSLFKAGAKYLPKQVGKAGAQQL]: the MIC in experiment [1] is no less than 512 µM; in experiment [2], no less than 512 µM; in [3] it was no less than 512 µM; in experiment [4] it was no less than 512 µM; in [5] it was greater than 512 µM; in experiment [6], no less than 512 µM. In experiment [7], this compound displayed an MIC of no less than 512 µM.
As for `CC[C@H](C)[C@H](NC(=O)[C@H](CC(C)C)NC(=O)[C@H](Cc1cnc[nH]1)NC(=O)CNC(=O)[C@H](CC(C)C)NC(=O)[C@@H](NC(=O)[C@H](CCCCN)NC(=O)[C@H](CO)NC(=O)[C@H](Cc1c[nH]c2ccccc12)NC(=O)[C@H](CCSC)NC(=O)CN)[C@@H](C)CC)C(=O)N[C@@H](CCCN=C(N)N)C(N)=O` [GMWSKILGHLIR], the MIC came to 7.7 µM (≈ 10.9 µg/mL) in the experiment with Staphylococcus aureus; 6.2 µM (≈ 8.74 µg/mL) in experiment [13]; 0.8 µM (≈ 1.13 µg/mL) in the experiment on Bacillus subtilis 168; 3.8 µM (≈ 5.36 µg/mL) with Escherichia coli B; 45 µM (≈ 63.4 µg/mL) against Pseudomonas aeruginosa.
The matching figures for `CSCC[C@H](NC(=O)[C@H](C)NC(=O)[C@H](CC(C)C)NC(=O)[C@H](CCCCN)NC(=O)[C@H](CC(C)C)NC(=O)[C@H](CC(C)C)NC(=O)[C@H](CCCCN)NC(=O)[C@H](CCCCN)NC(=O)[C@@H](NC(=O)[C@@H](N)CC(C)C)C(C)C)C(=O)NCC(=O)N[C@@H](Cc1ccccc1)C(=O)NCC(N)=O` [LVKKLLKLAMGFG]: 90 µM (≈ 128 µg/mL), 25 µM (≈ 35.4 µg/mL), 3.7 µM (≈ 5.24 µg/mL), 14.7 µM (≈ 20.8 µg/mL) and greater than 100 µM.
For the compound `NCCCC[C@H](NC(=O)[C@H](CCCN=C(N)N)NC(=O)[C@@H](N)CCCCN)C(=O)N[C@@H](CCCN=C(N)N)C(N)=O` [KRKR], the MIC in [12] is no less than 100 µM.
For `CC[C@H](C)[C@@H]1NC(=O)[C@H](C)NC(=O)[C@@H](NC(=O)[C@H](CCCCN)NC(=O)[C@H](C)NC(=O)[C@H](C)NC(=O)[C@H](CC(C)C)NC(=O)CNC(=O)[C@H](C)NC(=O)[C@@H](NC(=O)[C@H](CC(C)C)NC(=O)[C@@H]2CCCN2C(=O)[C@H](CC(C)C)NC(=O)[C@@H](N)Cc2ccccc2)[C@@H](C)CC)CSSC[C@@H](C(=O)O)NC(=O)[C@H](CCCCN)NC(=O)[C@H](CCCCN)NC(=O)[C@H]([C@@H](C)O)NC1=O` [FLPLIAGLAAKCAITKKC], the MIC in [1] was no less than 512 µM; in experiment [2], no less than 512 µM; in experiment [3], no less than 512 µM; in experiment [4] it was no less than 512 µM; in experiment [5], greater than 512 µM; in experiment [6], no less than 512 µM. The compound also registered an MIC in experiment [7] of no less than 512 µM.
